The text below walks through data of patent US8034806B2, “Bicyclic mGluR5 positive allosteric modulators and methods of making and using same” (Vanderbilt University, priority 2007, dated 2011).

This test addresses T1, rat mGluR5 (Rattus norvegicus, UniProt P31424).
T1 construct: expressed in transfected cells; host or cells: HEK (human embryonic kidney) cells
Kind of test: Potentiation of glutamate response, calcium fluorescence (FDSS) in HEK cells transfected with rat mGluR5. It is filed as cell-based. The note with it: for EC50: HEK cells transfected with rat mGluR5, EC20 concentration of glutamate, read-out: mGluR5 Potentiator EC50; for mGluR5 Potentiator Max: maximum extent of potentiation, normalized to the maximal response to agonist, in % (unit assumed). The method, then: Human embryonic kidney (HEK) cells transfected with rat mGluR5 were plated in clear bottom assay plates for assay in a Functional Drug Screening System (FDSS). The cells were loaded with a […] fluorescent dye (e.g., Fluo-4), and the plates were washed and placed in the FDSS instrument. After establishment of a fluorescence baseline for twelve seconds, the compounds of the present invention were added to the cells, and the response in cells was measured. Five minutes later, an mGluR5 agonist (e.g., glutamate, 3,5-dihydroxyphenylglycine, or quisqualate) was added to the cells, and the response of the cells was measured. Potentiation of the agonist response of mGluR5 by the compounds in the present invention was observed as an increase in response to non-maximal concentrations of agonist (here, glutamate) in the presence of compound compared to the response to agonist in the absence of compound.
The above described assay operated in two modes. In the first mode, a range of concentrations of the present compounds were added to cells, followed by a single fixed concentration of agonist. If a compound acted as a potentiator, an EC50 value for potentiation and a maximum extent of potentiation by the compound at this concentration of agonist was determined by non-linear curve fitting. In the second mode, several fixed concentrations of the present compounds were added to various wells on a plate, followed by a range of concentrations of agonist for each concentration of present compound; the EC50 values for the agonist at each concentration of compound were determined by non-linear curve fitting. A decrease in the EC50 value of the agonist with increasing concentrations of the present compounds (a leftward shift of the agonist concentration-response curve) is an indication of the degree of mGluR5 potentiation at a given concentration of the present compound. An increase in the EC50 value of the agonist with increasing concentrations of the present compounds (a rightward shift of the agonist concentration-response curve) is an indication of the degree of mGluR5 antagonism at a given concentration of the present compound. The second mode also indicates whether the present compounds also affect the maximum response to mGluR5 to agonists.
Human embryonic kidney (HEK) cells transfected with rat mGluR5 were plated in clear-bottomed, poly-D-lysine-coated assay plates in glutamate-glutamine-free medium growth and incubated overnight at 37° C. in 5% CO2. The following day, cells were loaded with 2 μM calcium indicator dye, fluo-4 AM, for 1 h at 37° C. Dye was removed and replaced with assay buffer containing 1× Hanks balanced salt solution (Invitrogen, Carlsbad, Calif.), 20 mM HEPES, and 2.5 mM probenecid, pH 7.4. Cell plates were then loaded into the Functional Drug Screening System 6000 (FDSS 6000, Hamamatsu, Japan). After establishment of a fluorescence baseline for twelve seconds, the compounds of the present invention were added to the cells, and the response in cells was measured. Five minutes later, an mGluR5 agonist (e.g., glutamate, 3,5-dihydroxyphenylglycine, or quisqualate) was added to the cells, and the response of the cells was measured during a 1 minute incubation with agonists. Typically, the effect of test compounds of the present invention was on an EC20 concentration of glutamate was measured. All test compounds were dissolved and diluted in 100% DMSO and then serially diluted into assay buffer for a 2.5× stock in 0.25% DMSO; stock compounds were then added to the assay for a final DMSO concentration of 0.1%. Calcium fluorescence measures were recorded as fold over basal fluorescence; raw data was then normalized to the maximal response to agonist. Potentiation of the agonist response of mGluR5 by the compounds in the present invention was observed as an increase in response to non-maximal concentrations of agonist (here, glutamate) in the presence of compound compared to the response to agonist in the absence of compound. […]

T1 sequence (P31424 21-1203): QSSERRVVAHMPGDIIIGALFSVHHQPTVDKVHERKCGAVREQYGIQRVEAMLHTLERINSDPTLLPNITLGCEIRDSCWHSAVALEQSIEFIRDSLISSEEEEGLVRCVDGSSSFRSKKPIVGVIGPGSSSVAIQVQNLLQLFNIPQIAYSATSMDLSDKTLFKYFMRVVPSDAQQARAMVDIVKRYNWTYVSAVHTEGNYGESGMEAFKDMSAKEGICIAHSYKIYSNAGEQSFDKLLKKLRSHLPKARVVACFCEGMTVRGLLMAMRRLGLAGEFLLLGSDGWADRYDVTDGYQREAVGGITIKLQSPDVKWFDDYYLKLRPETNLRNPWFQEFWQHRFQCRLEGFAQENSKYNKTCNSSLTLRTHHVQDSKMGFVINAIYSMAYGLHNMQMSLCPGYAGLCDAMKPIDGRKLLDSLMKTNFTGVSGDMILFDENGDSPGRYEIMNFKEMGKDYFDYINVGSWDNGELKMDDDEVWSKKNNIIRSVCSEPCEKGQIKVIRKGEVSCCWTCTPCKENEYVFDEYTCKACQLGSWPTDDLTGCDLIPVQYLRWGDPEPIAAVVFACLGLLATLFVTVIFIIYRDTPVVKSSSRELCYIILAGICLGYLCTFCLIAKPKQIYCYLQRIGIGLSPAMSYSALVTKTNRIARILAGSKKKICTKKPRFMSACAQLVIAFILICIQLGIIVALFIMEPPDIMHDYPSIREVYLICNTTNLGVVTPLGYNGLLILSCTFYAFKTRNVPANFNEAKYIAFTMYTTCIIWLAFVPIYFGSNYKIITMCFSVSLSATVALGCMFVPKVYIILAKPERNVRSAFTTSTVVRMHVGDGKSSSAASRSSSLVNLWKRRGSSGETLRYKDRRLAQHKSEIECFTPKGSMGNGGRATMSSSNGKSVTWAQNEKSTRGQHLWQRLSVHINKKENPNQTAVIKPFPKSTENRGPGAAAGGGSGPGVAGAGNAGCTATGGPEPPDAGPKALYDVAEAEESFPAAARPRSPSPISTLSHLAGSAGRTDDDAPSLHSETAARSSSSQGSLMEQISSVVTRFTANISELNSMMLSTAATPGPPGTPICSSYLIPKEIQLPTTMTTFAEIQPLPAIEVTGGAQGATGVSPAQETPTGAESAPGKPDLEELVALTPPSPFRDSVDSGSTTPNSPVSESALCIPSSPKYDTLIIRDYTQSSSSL

Broadly, the EC50 is the midpoint of the concentration-response curve. For the compound `CN1CCc2cc(C#Cc3ccccc3)ccc2C1=O` [VU000068], the EC50 was 25.4 nM and the “mGluR5 Potentiator Max” value is on record as 53.4.

For the compound `CCCN1CCc2cc(C#Cc3ccccc3)ccc2C1=O` [VU000069], the EC50 turned out to be 16.2 nM and the “mGluR5 Potentiator Max” value worked out at 96.5.

Regarding `CCCCN1CCc2cc(C#Cc3ccccc3)ccc2C1=O` [VU000070], the EC50 worked out at 96 nM and the “mGluR5 Potentiator Max” value turned out to be 96.7.

Regarding `O=C1c2ccc(C#Cc3ccccc3)cc2CCN1Cc1ccccc1` [VU000071], the half-maximal effective concentration (EC50) was 546 nM and the “mGluR5 Potentiator Max” value is listed as 89.9.

As to `O=C(CN1CCc2cc(C#Cc3ccccc3)ccc2C1=O)OCc1ccccc1` [VU000072], the half-maximal effective concentration (EC50) worked out at 77.3 nM and the “mGluR5 Potentiator Max” value is 88.4.

On to `CCOC(=O)C(CC)N1CCc2cc(C#Cc3ccccc3)ccc2C1=O` (stereo not shown) [VU000073], for which the concentration for a half-maximal effect (EC50) amounted to 87.7 nM and the “mGluR5 Potentiator Max” value is 85.4.

`O=C1c2ccc(C#Cc3ccccc3)cc2CCN1CC1CC1` [VU000098]: the EC50 was 17.5 nM and the “mGluR5 Potentiator Max” value is 69.4.

As for `O=C1c2ccc(C#Cc3ccccc3)cc2CCN1CC1CCC1` [VU000099], the EC50 was 26.7 nM and the “mGluR5 Potentiator Max” value was determined as 90.7.

In the case of `O=C1c2ccc(C#Cc3ccccc3)cc2CCN1CCN1CCC1` [VU000100], the EC50 is 4040 nM and the “mGluR5 Potentiator Max” value turned out to be 76.3.

Take `O=C1c2ccc(C#Cc3ccccc3)cc2CCN1CCN1CCOCC1` [VU000101]: the EC50 turned out to be 3570 nM and the “mGluR5 Potentiator Max” value was found to be 84.

For `O=C1c2ccc(C#Cc3ccccc3)cc2CCN1CCN1CCC(O)CC1` [VU000102], the half-maximal effective concentration (EC50) was 4040 nM and the “mGluR5 Potentiator Max” value turned out to be 45.7.

On to `Cc1ccccc1C#Cc1ccc2c(c1)CCNC2=O` [VU000105], for which the EC50 worked out at 612 nM and the “mGluR5 Potentiator Max” value is listed as 53.4.

In the case of `Cc1cccc(C#Cc2ccc3c(c2)CCNC3=O)c1` [VU000106], the EC50 turned out to be 172 nM and the “mGluR5 Potentiator Max” value came to 75.7.

Consider `O=C1NCCc2cc(C#Cc3ccc(F)cc3)ccc21` [VU000107], for which the EC50 is 259 nM and the “mGluR5 Potentiator Max” value is on record as 81.

In the case of `O=C1NCCc2cc(C#Cc3ccccc3F)ccc21` [VU000108], the EC50 came to 145 nM and the “mGluR5 Potentiator Max” value stood at 80.4.

`COc1ccc(C#Cc2ccc3c(c2)CCNC3=O)cc1` [VU000109]: the “mGluR5 Potentiator Max” value was found to be 28.2.

Take `COc1cccc(C#Cc2ccc3c(c2)CCNC3=O)c1` [VU000110]: the EC50 amounted to 3390 nM and the “mGluR5 Potentiator Max” value amounted to 58.1.

Turning to `O=C1NCCc2cc(C#Cc3ccccc3Cl)ccc21` [VU000111], the EC50 stood at 4890 nM and the “mGluR5 Potentiator Max” value is on record as 53.2.

Take `Cc1cc(C#Cc2ccc3c(c2)CCNC3=O)ccc1F` [VU000112]: the EC50 was 3670 nM and the “mGluR5 Potentiator Max” value is 49.7.

As for `O=C1NCCc2cc(C#Cc3ccc(Cl)cc3)ccc21` [VU000113], the “mGluR5 Potentiator Max” value is 28.6.

Regarding `O=C1NCCc2cc(C#Cc3cccc(Cl)c3)ccc21` [VU000114], the concentration for a half-maximal effect (EC50) is 470 nM and the “mGluR5 Potentiator Max” value is given as 67.9.

Regarding `O=C1NCCc2cc(C#Cc3ccc(F)cc3F)ccc21` [VU000115], the 50% effective concentration (EC50) worked out at 853 nM and the “mGluR5 Potentiator Max” value worked out at 58.7.

Take `O=C1NCCc2cc(C#Cc3cc(F)cc(F)c3)ccc21` [VU000116]: the EC50 stood at 3000 nM and the “mGluR5 Potentiator Max” value is recorded as 35.6.

Consider `O=C1NCCc2cc(C#Cc3ccncc3)ccc21` [VU000117], for which the EC50 was determined as 243 nM and the “mGluR5 Potentiator Max” value is 58.

Take `CN(C)c1ccc(C#Cc2ccc3c(c2)CCNC3=O)cc1` [VU000118]: the “mGluR5 Potentiator Max” value came out at 28.9.

As for `COc1ccc(C#Cc2ccc3c(c2)CCNC3=O)c(C)c1` [VU000119], the “mGluR5 Potentiator Max” value was determined as 29.7.

On to `O=C1NCCc2cc(C#Cc3cccc(C(F)(F)F)c3)ccc21` [VU000120], for which the “mGluR5 Potentiator Max” value stood at 33.5.

Turning to `O=C1NCCc2cc(C#Cc3ccccc3C(F)(F)F)ccc21` [VU000121], the “mGluR5 Potentiator Max” value is on record as 34.8.

`O=C(CN1CCc2cc(C#Cc3ccccc3)ccc2C1=O)NCC1CC1` [VU000124]: the EC50 was found to be 953 nM and the “mGluR5 Potentiator Max” value was 53.7.

On to `O=C(CN1CCc2cc(C#Cc3ccccc3)ccc2C1=O)NC1CC1` [VU000125], for which the 50% effective concentration (EC50) stood at 3080 nM and the “mGluR5 Potentiator Max” value was found to be 52.6.

Turning to `CN(C)CCNC(=O)CN1CCc2cc(C#Cc3ccccc3)ccc2C1=O` [VU000126], the half-maximal effective concentration (EC50) was found to be 1.66 nM and the “mGluR5 Potentiator Max” value is listed as 35.4.

With `COCCNC(=O)CN1CCc2cc(C#Cc3ccccc3)ccc2C1=O` [VU000127], the EC50 was determined as 3060 nM and the “mGluR5 Potentiator Max” value stood at 52.3.

Regarding `O=C(CN1CCc2cc(C#Cc3ccccc3)ccc2C1=O)N1CCC(O)CC1` [VU000128], the “mGluR5 Potentiator Max” value is listed as 37.6.

For `O=C(CN1CCc2cc(C#Cc3ccccc3)ccc2C1=O)NCCN1CCCCC1` [VU000129], the “mGluR5 Potentiator Max” value came to 30.

`O=C(CN1CCc2cc(C#Cc3ccccc3)ccc2C1=O)N1CCOCC1` [VU000130]: the EC50 turned out to be 2350 nM and the “mGluR5 Potentiator Max” value turned out to be 55.4.

Turning to `CN1CCN(C(=O)CN2CCc3cc(C#Cc4ccccc4)ccc3C2=O)CC1` [VU000131], the EC50 was determined as 7200 nM and the “mGluR5 Potentiator Max” value is 35.4.
